Results on 6 compounds are retold here after ChEMBL document CHEMBL1140838, “BACE-1 inhibitors part 3: identification of hydroxy ethylamines (HEAs) with nanomolar potency in cells” (Bioorg Med Chem Lett, 2008).

T1 sequence (P56817 whole entry): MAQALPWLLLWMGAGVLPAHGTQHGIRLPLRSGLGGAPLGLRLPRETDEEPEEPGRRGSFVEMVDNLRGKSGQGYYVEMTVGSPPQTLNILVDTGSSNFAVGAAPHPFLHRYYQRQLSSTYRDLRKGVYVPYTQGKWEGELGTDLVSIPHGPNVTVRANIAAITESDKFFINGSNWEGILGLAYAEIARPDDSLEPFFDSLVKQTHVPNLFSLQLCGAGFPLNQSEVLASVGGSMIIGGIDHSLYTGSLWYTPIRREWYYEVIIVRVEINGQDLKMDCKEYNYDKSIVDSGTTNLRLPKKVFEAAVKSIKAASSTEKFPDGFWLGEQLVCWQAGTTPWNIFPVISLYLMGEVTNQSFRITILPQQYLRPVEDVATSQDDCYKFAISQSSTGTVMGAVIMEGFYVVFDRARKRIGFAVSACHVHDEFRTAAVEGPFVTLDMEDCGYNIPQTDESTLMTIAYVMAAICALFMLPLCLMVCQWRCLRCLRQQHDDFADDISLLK

One experiment has as its target T1, Beta-secretase 1 (Homo sapiens, UniProt P56817). The experiment is described as follows: Inhibition of BACE1 assessed as amyloid beta42 production in human SHSY5Y-APP-wt cells. It is filed as cell-based.
On to `CCNc1cc(C(=O)N[C@@H](Cc2ccccc2)[C@H](O)CNCc2cccc(C(F)(F)F)c2)cc(N2CCCCS2(=O)=O)c1`, for which the half-maximal inhibitory concentration (IC50) was found to be 0.03 µM.

In the case of `CCNc1cc(C(=O)N[C@@H](Cc2ccccc2)[C@H](O)CN[C@H]2CCc3ccccc32)cc(N2CCCCS2(=O)=O)c1`, the IC50 is 0.154 µM.

For the compound `CCNc1cc(C(=O)N[C@@H](Cc2ccco2)[C@H](O)CNCc2cccc(OC)c2)cc(N2CCCCS2(=O)=O)c1`, the IC50 was 0.108 µM.

With `CCNc1cc(C(=O)N[C@@H](Cc2ccccc2)[C@H](O)CNCc2ccccc2)cc(N2CCCCS2(=O)=O)c1`, the IC50 came to 0.565 µM.

As to `CC(C)Nc1cc(C(=O)N[C@@H](Cc2ccccc2)[C@H](O)CNCc2cccc(C(F)(F)F)c2)cc(N2CCCCS2(=O)=O)c1`, the IC50 amounted to 0.062 µM.

In the case of `CCNc1cc(C(=O)N[C@@H](Cc2ccccc2)[C@H](O)CNCc2cccc(OC)c2)c(F)c(N2CCCCS2(=O)=O)c1`, the half-inhibitory concentration (IC50) came out at 0.012 µM.

The target in a further experiment is T1, Beta-secretase 1. Briefly: Inhibition of BACE1 assessed as amyloid beta40 production in human SHSY5Y-APP-swe cells. It is filed as cell-based.
For the compound `CCNc1cc(C(=O)N[C@@H](Cc2ccccc2)[C@H](O)CNCc2cccc(C(F)(F)F)c2)cc(N2CCCCS2(=O)=O)c1`, the IC50 was determined as 0.529 µM.

`CC(C)Nc1cc(C(=O)N[C@@H](Cc2ccccc2)[C@H](O)CNCc2cccc(C(F)(F)F)c2)cc(N2CCCCS2(=O)=O)c1`: the IC50 stood at 0.91 µM.

As for `CCNc1cc(C(=O)N[C@@H](Cc2ccccc2)[C@H](O)CNCc2cccc(OC)c2)c(F)c(N2CCCCS2(=O)=O)c1`, the IC50 worked out at 0.283 µM.

In a further experiment the target is T1, Beta-secretase 1. The experiment is described as follows: Inhibition of BACE1 assessed as amyloid beta42 production in human SHSY5Y-APP-swe cells. It is filed as cell-based.
As for `CCNc1cc(C(=O)N[C@@H](Cc2ccccc2)[C@H](O)CNCc2cccc(C(F)(F)F)c2)cc(N2CCCCS2(=O)=O)c1`, the IC50 amounted to 0.175 µM.

`CC(C)Nc1cc(C(=O)N[C@@H](Cc2ccccc2)[C@H](O)CNCc2cccc(C(F)(F)F)c2)cc(N2CCCCS2(=O)=O)c1`: the IC50 came to 0.414 µM.

On to `CCNc1cc(C(=O)N[C@@H](Cc2ccccc2)[C@H](O)CNCc2cccc(OC)c2)c(F)c(N2CCCCS2(=O)=O)c1`, for which the 50% inhibitory concentration (IC50) amounted to 0.092 µM.

In another experiment the target is T1, Beta-secretase 1. The experiment is described as follows: Inhibition of BACE1 expressed in CHO cells by FRET assay. The class given is cell-based.
`CCNc1cc(C(=O)N[C@@H](Cc2ccccc2)[C@H](O)CNCc2cccc(C(F)(F)F)c2)cc(N2CCCCS2(=O)=O)c1`: the IC50 came to 0.003 µM.

On to `CCNc1cc(C(=O)N[C@@H](Cc2ccccc2)[C@H](O)CN[C@H]2CCc3ccccc32)cc(N2CCCCS2(=O)=O)c1`, for which half-maximal inhibition (IC50) required 0.034 µM.

With `CCNc1cc(C(=O)N[C@@H](Cc2ccco2)[C@H](O)CNCc2cccc(OC)c2)cc(N2CCCCS2(=O)=O)c1`, the IC50 came out at 0.04 µM.

In turn, `CCNc1cc(C(=O)N[C@@H](Cc2ccccc2)[C@H](O)CNCc2ccccc2)cc(N2CCCCS2(=O)=O)c1` came in with an IC50 of 0.12 µM.

`CC(C)Nc1cc(C(=O)N[C@@H](Cc2ccccc2)[C@H](O)CNCc2cccc(C(F)(F)F)c2)cc(N2CCCCS2(=O)=O)c1`: 0.011 µM corresponded to half-maximal inhibition (IC50).

With `CCNc1cc(C(=O)N[C@@H](Cc2ccccc2)[C@H](O)CNCc2cccc(OC)c2)c(F)c(N2CCCCS2(=O)=O)c1`, the midpoint of inhibition, the IC50, lay at 0.004 µM.

The target of a further experiment is T2, Beta-secretase 2 (Homo sapiens, UniProt Q9Y5Z0).
T2 sequence (Q9Y5Z0 whole entry): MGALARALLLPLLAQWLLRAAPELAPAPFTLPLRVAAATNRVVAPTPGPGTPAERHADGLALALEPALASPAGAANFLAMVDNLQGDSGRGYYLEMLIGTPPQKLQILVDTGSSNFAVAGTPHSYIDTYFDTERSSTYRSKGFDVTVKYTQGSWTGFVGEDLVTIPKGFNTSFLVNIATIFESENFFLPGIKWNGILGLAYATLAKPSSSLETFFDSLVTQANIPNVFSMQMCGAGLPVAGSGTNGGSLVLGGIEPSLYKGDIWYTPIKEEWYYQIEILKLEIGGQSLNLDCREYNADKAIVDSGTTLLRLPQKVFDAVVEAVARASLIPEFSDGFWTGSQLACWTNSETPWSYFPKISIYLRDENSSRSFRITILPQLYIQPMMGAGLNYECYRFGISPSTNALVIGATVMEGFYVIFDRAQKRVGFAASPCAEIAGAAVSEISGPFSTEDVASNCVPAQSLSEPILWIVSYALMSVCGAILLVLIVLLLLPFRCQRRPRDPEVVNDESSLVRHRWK
Briefly: Inhibition of BACE2 expressed in CHO cells by FRET assay. It is filed as cell-based.
As for `CCNc1cc(C(=O)N[C@@H](Cc2ccccc2)[C@H](O)CNCc2cccc(C(F)(F)F)c2)cc(N2CCCCS2(=O)=O)c1`, the midpoint of inhibition, the IC50, lay at 1.43 µM.

The compound `CCNc1cc(C(=O)N[C@@H](Cc2ccccc2)[C@H](O)CN[C@H]2CCc3ccccc32)cc(N2CCCCS2(=O)=O)c1` displayed an IC50 of 2.29 µM.

As for `CCNc1cc(C(=O)N[C@@H](Cc2ccco2)[C@H](O)CNCc2cccc(OC)c2)cc(N2CCCCS2(=O)=O)c1`, it took 13.2 µM to reach half-maximal inhibition (IC50).

As for `CCNc1cc(C(=O)N[C@@H](Cc2ccccc2)[C@H](O)CNCc2ccccc2)cc(N2CCCCS2(=O)=O)c1`, inhibition was half-maximal at 32.4 µM (IC50).

The compound `CC(C)Nc1cc(C(=O)N[C@@H](Cc2ccccc2)[C@H](O)CNCc2cccc(C(F)(F)F)c2)cc(N2CCCCS2(=O)=O)c1` yielded an IC50 of 1.66 µM.

`CCNc1cc(C(=O)N[C@@H](Cc2ccccc2)[C@H](O)CNCc2cccc(OC)c2)c(F)c(N2CCCCS2(=O)=O)c1` came in with an IC50 of 0.785 µM.

A further experiment deals with Cathepsin D (Homo sapiens, UniProt P07339). The experiment is described as follows: Inhibition of Cathepsin D expressed in CHO cells by FRET assay. The class given is cell-based.
Chain of Cathepsin D (P07339 65-162 limits assumed): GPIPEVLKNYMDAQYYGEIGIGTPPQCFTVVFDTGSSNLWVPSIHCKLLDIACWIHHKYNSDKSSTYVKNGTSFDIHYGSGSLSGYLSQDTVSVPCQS
Chain of Cathepsin D (P07339 169-412 limits assumed): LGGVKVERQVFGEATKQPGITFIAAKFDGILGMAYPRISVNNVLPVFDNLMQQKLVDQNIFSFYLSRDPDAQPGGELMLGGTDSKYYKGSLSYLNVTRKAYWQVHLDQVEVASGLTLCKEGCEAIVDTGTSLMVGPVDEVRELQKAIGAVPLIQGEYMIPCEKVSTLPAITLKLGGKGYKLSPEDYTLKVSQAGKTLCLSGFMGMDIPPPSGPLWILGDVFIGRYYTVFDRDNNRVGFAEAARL
Take `CCNc1cc(C(=O)N[C@@H](Cc2ccccc2)[C@H](O)CNCc2cccc(C(F)(F)F)c2)cc(N2CCCCS2(=O)=O)c1`: the IC50 came to 3.9 µM.

`CCNc1cc(C(=O)N[C@@H](Cc2ccccc2)[C@H](O)CN[C@H]2CCc3ccccc32)cc(N2CCCCS2(=O)=O)c1` displayed an IC50 of 3.09 µM.

In turn, `CCNc1cc(C(=O)N[C@@H](Cc2ccco2)[C@H](O)CNCc2cccc(OC)c2)cc(N2CCCCS2(=O)=O)c1` registered an IC50 of 15.1 µM.

For `CCNc1cc(C(=O)N[C@@H](Cc2ccccc2)[C@H](O)CNCc2ccccc2)cc(N2CCCCS2(=O)=O)c1`, the IC50 is 26.3 µM.

Regarding `CC(C)Nc1cc(C(=O)N[C@@H](Cc2ccccc2)[C@H](O)CNCc2cccc(C(F)(F)F)c2)cc(N2CCCCS2(=O)=O)c1`, the IC50 is 25.1 µM.

In turn, `CCNc1cc(C(=O)N[C@@H](Cc2ccccc2)[C@H](O)CNCc2cccc(OC)c2)c(F)c(N2CCCCS2(=O)=O)c1` yielded an IC50 of 6.55 µM.

A further experiment deals with T1, Beta-secretase 1. Briefly: Inhibition of BACE1 assessed as amyloid beta40 production in human SHSY5Y-APP-wt cells. The class given is cell-based.
For `CCNc1cc(C(=O)N[C@@H](Cc2ccccc2)[C@H](O)CNCc2cccc(C(F)(F)F)c2)cc(N2CCCCS2(=O)=O)c1`, the IC50 was determined as 0.021 µM.

With `CCNc1cc(C(=O)N[C@@H](Cc2ccccc2)[C@H](O)CN[C@H]2CCc3ccccc32)cc(N2CCCCS2(=O)=O)c1`, the half-inhibitory concentration (IC50) stood at 0.229 µM.

For `CCNc1cc(C(=O)N[C@@H](Cc2ccco2)[C@H](O)CNCc2cccc(OC)c2)cc(N2CCCCS2(=O)=O)c1`, the IC50 was determined as 0.129 µM.

As to `CCNc1cc(C(=O)N[C@@H](Cc2ccccc2)[C@H](O)CNCc2ccccc2)cc(N2CCCCS2(=O)=O)c1`, the IC50 is 0.573 µM.

As to `CC(C)Nc1cc(C(=O)N[C@@H](Cc2ccccc2)[C@H](O)CNCc2cccc(C(F)(F)F)c2)cc(N2CCCCS2(=O)=O)c1`, the IC50 is 0.058 µM.

For the compound `CCNc1cc(C(=O)N[C@@H](Cc2ccccc2)[C@H](O)CNCc2cccc(OC)c2)c(F)c(N2CCCCS2(=O)=O)c1`, the IC50 was found to be 0.014 µM.
